For data set [1], the system named is silver nitrate-induced arteriothromboembolia in male Wistar-Shizuoka rats. Description: Test on Inhibition of Silver Nitrate-Induced Arteriothromboembolia in Rats. Format: in vivo. To be noted: for Number of Obstruction Case/Number of Experiments: control 23/26; for Percent Obstruction: control 88%. An excerpt: Male Wistar -Shizuoka rats weighing 270±20 g were anesthetized with urethane (1.5 g/kg) intraperitoneally. Each animal was fixed on its back, and a venous cannula and an arterial cannula were inserted into the left carotid vein and the left femoral artery, respectively. An abdominal incision was made, the intestinal tract was put aside so that the descending abdominal aorta could be seen, the surrounding connective tissues were removed, the descending aorta was detached to a length of about 1 cm, and the detached descending aorta was put on a globe of 8 cm in diameter. A solvent (0.1 ml; physiological saline containing 0.05N sodium hydroxide) or a drug solution (0.1 ml) in the solvent was injected via the cannulated carotid vein per 100 g of body weight. Three minutes later, a 30% silver nitrate aqueous solution was dropped on the detached descending abdominal aorta. Five minutes later, the globe was removed, and the affected site was washed three times with physiological saline to stop the reaction. After the elapse of 30 minutes from the stopping of the reaction, the blood pressure of the femoral artery was measured, and the pressure fall was taken as an indication of obstruction of the descending arterial. Significance of the difference in degree of the obstruction between the control group (only the solvent was administered) and the test group was assayed by X^2 -assay.

The next data set concerns dd male mice. Description: Acute Toxicity Test (minimum lethal dose, MLD). Format: in vivo. To be noted: dd male mice, mortality after 7 days. The protocol: A test compound was given to dd male mice weighing 20±1 g (3 mice per group) per os. (p.o.; 300 mg/kg) or intraperitoneally (i.p.; 100 mg/kg). The mortality after 7 days from the administration was considered to determine the minimum lethal dose (MLD).

In data set [2] the target is T1, thromboxane synthase (TXA2 synthase), bovine platelet microsome (Bos taurus, UniProt Q2KIG5).
T1 construct: bovine platelet microsome; from tissue; host or cells: bovine platelets (microsome)
T1 sequence (Q2KIG5 1-533): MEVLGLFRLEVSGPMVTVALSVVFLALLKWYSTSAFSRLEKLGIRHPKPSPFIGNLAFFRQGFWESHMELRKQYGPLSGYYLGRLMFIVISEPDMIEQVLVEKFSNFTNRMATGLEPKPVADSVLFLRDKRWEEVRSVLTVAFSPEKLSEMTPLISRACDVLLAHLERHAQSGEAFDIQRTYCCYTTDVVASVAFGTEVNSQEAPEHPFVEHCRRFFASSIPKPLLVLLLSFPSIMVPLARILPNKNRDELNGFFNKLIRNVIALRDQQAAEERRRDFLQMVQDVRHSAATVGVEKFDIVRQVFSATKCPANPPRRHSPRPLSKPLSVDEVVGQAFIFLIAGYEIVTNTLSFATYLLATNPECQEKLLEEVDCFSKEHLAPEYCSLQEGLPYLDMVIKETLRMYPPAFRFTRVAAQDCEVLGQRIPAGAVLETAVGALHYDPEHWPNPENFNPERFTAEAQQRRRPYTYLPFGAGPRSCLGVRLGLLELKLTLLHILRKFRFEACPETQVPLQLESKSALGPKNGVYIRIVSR
Description: Test on Inhibition of TXA2 Biosynthesis (bovine platelet microsome, TXB2 by radioimmunoassay). Format: biochemical. To be noted: for pIC50: bovine platelet microsome, pH 7.4, prostaglandin H2 substrate. The protocol: A mixture of 70 μl of bovine platelet microsome [protein: 40 μg; 100 mM tris-HCl buffer (pH=7.4)] and 10 μl of a test compound solution (100 mM tris-HCl buffer containing 10% methanol) was allowed to stand at 0° C. for 5 minutes, and 20 μl of a prostaglandin H2 solution (100 mM tris-HCl buffer supplemented with acetone containing 0.1 nmol of prostaglandin H2) was added thereto as a substrate.
The amount of thromboxane B2 (TXB2) (stable degradation product of TXA2) produced in the system was determined by radioimmunoassay [F. A. Fitzpatrick et al., Methods in Enzymology, Vol. 86, p.286 (1982)].
Inhibition of TXB2 synthesis was evaluated by IC50 (50% inhibitory concentration) or percent inhibition as calculated from equation described below, and the results obtained are shown in Table 1. [formula]

Each structure is given as a SMILES string. pIC50: −log10 of the molar value.

As to `O=C(O)CCCC/C=C(\c1ccccc1)c1cccnc1` [CV-4151, reference compound], the “Number of Obstruction Case/Number of Experiments” value in data set [1] (0.3 mg/kg i.v.) was 4/6; in data set [1] (1.0 mg/kg i.v.) it was 4/8; in data set [1] (3.0 mg/kg i.v.) it was 1/5. Moreover, the “Percent Obstruction” value in data set [1] (0.3 mg/kg i.v.) was found to be 67%; in data set [1] (1.0 mg/kg i.v.), 50%; in data set [1] (3.0 mg/kg i.v.), 20%.
Turning to `O=C(O)CCCCC=C1c2cc(Br)ccc2NC(=O)c2ccncc21` [Compound I-1, 9-Bromo-11-(5-carboxypentylidene)-5,11-dihydropyrido-[4,3-c][1]benzazepin-5(6H)-one], in the data set on dd male mice, the “Acute Toxicity (MLD) ip” value was over 100 mg/kg and the “Acute Toxicity (MLD) po” value is listed as over 300 mg/kg. Moreover, the pIC50 (commonly the IC50 on a negative log10 scale, so that one unit is a factor of ten) in data set [2] is 7.49.
Take `Cc1cccc2c1NC(=O)c1ccncc1C2=CCCCCC(=O)O` [Compound I-2, 11-(5-Carboxypentylidene)-7-methyl-5,11-dihydropyrido-[4,3-c][1]benzazepin-5(6H)-one]: in the data set on dd male mice, the “Acute Toxicity (MLD) ip” value was over 100 mg/kg and the “Acute Toxicity (MLD) po” value is over 300 mg/kg. In addition, the inhibition (commonly the share of the control response that was lost under treatment) at 0.1 µM in data set [2] (0.1 μM (footnote *), read-out: Inhibition of TXA2 Biosynthesis, Percent inhibition at 0.1 μM) is 41%.
Take `COc1ccc2c(c1)C(=CCCCCC(=O)O)c1cnccc1C(=O)N2C` [Compound I-3, 11-(5-Carboxypentylidene)-9-methoxy-6-methyl-5,11-dihydropyrido-[4,3-c][1]benzazepin-5(6H)-one]: in the data set on dd male mice, the “Acute Toxicity (MLD) ip” value is over 100 mg/kg and the “Acute Toxicity (MLD) po” value was over 300 mg/kg. Further, in data set [2], the pIC50 is 6.40.
For `O=C(O)CCCC=C1c2ccccc2NC(=O)c2ccncc21` [Compound I-4, 11-(4-Carboxybutylidene)-5,11-dihydropyrido[4,3-c][1]-benzazepin-5(6H)-one], in that order: over 100 mg/kg, over 300 mg/kg and 6.60.
Take `O=C(O)CCCCCCC=C1c2ccccc2NC(=O)c2ccncc21` [Compound I-5, 11-(7-Carboxyheptylidene)-5,11-dihydropyrido[4,3-c][1]-benzazepin-5(6H)-one]: in the data set with dd male mice, the “Acute Toxicity (MLD) ip” value is given as over 100 mg/kg and the “Acute Toxicity (MLD) po” value is over 300 mg/kg. Also, the pIC50 in data set [2] is 6.89.
Turning to `CSC1=Nc2ccccc2C(=CCCCCC(=O)O)c2cnccc21` [Compound I-6, 11-(5-Carboxypentylidene)-5-thiomethyl-11(H)-pyrido-[4,3-c][1]benzazpin], in the data set on dd male mice, the “Acute Toxicity (MLD) ip” value was over 100 mg/kg and the “Acute Toxicity (MLD) po” value is on record as over 300 mg/kg. Besides, in data set [2], the pIC50 is 8.30.
As to `C/C=C/C1=Cc2ccccc2/C(=C/CCCCC(=O)O)c2cnccc21` [Compound I-7, (Z)-11-(5-Carboxypentylidene)-5-[(E)-1-propen-1-yl]-(H)-pyrido[3,4-b]benzcycloheptene], in the data set with dd male mice, the “Acute Toxicity (MLD) ip” value is listed as over 100 mg/kg and the “Acute Toxicity (MLD) po” value is over 300 mg/kg. The molecule further had a pIC50 in data set [2] of 7.68.
For `O=C(O)CCCC/C=C1\c2ccccc2NC(=O)c2ccncc21` [Compound I-10E, (E)-11-(5-Carboxypentylidene)-5,11-dihydropyrido[4,3-c][1]benzazepin-5(6H)-one], in that order: over 100 mg/kg, over 300 mg/kg and 7.68.
For `O=C(O)CCCC/C=C1/c2ccccc2NC(=O)c2ccncc21` [Compound I-10Z, (Z)-11-(5-carboxypentylidene)-5,11-dihydropyrido[4,3-c][1]benzazepin-5(6H)-one], in that order: over 100 mg/kg, over 300 mg/kg and 7.80.
For `O=C(O)CCCC/C=C1/c2cnccc2C(=O)N(Cc2ccccc2)c2ccccc21` [Compound I-11E, (E)-6-Benzyl-11-(5-carboxypentylidene)-5,11-dihydropyrido[4,3-c][1]benzazepin-5(6H)-one], in the data set with dd male mice, the “Acute Toxicity (MLD) ip” value is on record as over 100 mg/kg and the “Acute Toxicity (MLD) po” value is recorded as over 300 mg/kg. Moreover, in data set [2], the pIC50 was 8.08.
For `O=C(O)CCCC/C=C1\c2cnccc2C(=O)N(Cc2ccccc2)c2ccccc21` [Compound I-11Z, (Z)-6-benzyl-11-(5-carboxypentylidene)-5,11-dihydropyrido[4,3-c][1]benzazepin-5(6H)-one], in that order: over 100 mg/kg, over 300 mg/kg and 7.39.
Consider `CN1C(=O)c2ccncc2/C(=C/CCCCC(=O)O)c2ccccc21` [Compound I-12E, (E)-11-(5-Carboxypentylidene)-6-methyl-5,11-dihydropyrido[4,3-c][1]benzazepin-5(6H)-one], for which, in the data set with dd male mice, the “Acute Toxicity (MLD) ip” value is on record as over 100 mg/kg and the “Acute Toxicity (MLD) po” value is given as over 300 mg/kg. This molecule showed a pIC50 in data set [2] of 7.70.
As for `COC1=Nc2ccncc2/C(=C\CCCCC(=O)O)c2ccccc21` [Compound I-13Z, (Z)-11-(5-carboxypentylidene)-6-methoxy-11H-pyrido[4,3-c][2]benzazepin], in the data set on dd male mice, the “Acute Toxicity (MLD) ip” value is recorded as over 100 mg/kg and the “Acute Toxicity (MLD) po” value is recorded as over 300 mg/kg. In data set [2], this molecule had a negative logarithm of the IC50 (pIC50) of 8.46.
For `O=C(O)CCCC/C=C1/c2cnccc2NC(=O)c2ccccc21` [Compound I-14E, (E)-11-(5-Carboxypentylidene)-6,11-dihydropyrido[4,3-c][2]benzazepin-6(5H)-one], in that order: over 100 mg/kg, over 300 mg/kg and 7.66.
Consider `O=C(O)CCCC/C=C1\c2cnccc2NC(=O)c2ccccc21` [Compound I-14Z, (Z)-11-(5-Carboxypentylidene)-6,11-dihydropyrido[4,3-c][2]benzazepin-6(5H)-one], for which, in the data set with dd male mice, the “Acute Toxicity (MLD) ip” value was over 100 mg/kg and the “Acute Toxicity (MLD) po” value is on record as over 300 mg/kg. This molecule also gave a pIC50 in data set [2] of 6.35.
For `O=C(O)CCCCC=C1c2cnccc2CNc2ccccc21` [Compound I-15, 11-(5-Carboxypentylidene)-11H-5,6-dihydropyrido[4,3-c][1]benzazepin], in that order: over 100 mg/kg, over 300 mg/kg and 7.66.
For `CSC1=Nc2ccccc2C(=CCCCCC(=O)O)c2ccncc21` [Compound I-18, 5-(5-Carboxypentylidene)-11-thiomethyl-5H-pyrido[3,4-c][1]benzazepin], in that order: over 100 mg/kg, over 300 mg/kg and 7.00.
As to `O=C(O)CCCC/C=C1/c2ccccc2NC(=O)c2cnccc21` [Compound I-19E, (E)-5-(5-Carboxypentylidene)-5,11-dihydropyrido[3,4-c][1]benzazepin-11(10H)-one], in the data set on dd male mice, the “Acute Toxicity (MLD) ip” value is over 100 mg/kg and the “Acute Toxicity (MLD) po” value is over 300 mg/kg. In addition, in data set [2], testing at 10 µM gave an inhibition of 13%.
In the case of `C/C(=C\c1ccc(Cc2cccnc2)cc1)C(=O)O` [OKY-1581, reference compound], the “Number of Obstruction Case/Number of Experiments” value is listed as 5/5 in data set [1] (0.3 mg/kg i.v.), 4/6 in data set [1] (1.0 mg/kg i.v.) and 0/3 in data set [1] (3.0 mg/kg i.v.). Moreover, the “Percent Obstruction” value is 100% in data set [1] (0.3 mg/kg i.v.), 67% in data set [1] (1.0 mg/kg i.v.) and 0% in data set [1] (3.0 mg/kg i.v.).

The values are drawn from patent US4971964A, “Pyridine derivatives” (priority 1988, dated 1990).
